{"source": "patent US20150023953A1", "about": "“METHOD OF TREATING CANCER” (priority 2012, published 2015)", "key": {"ABCB1 (P-GP)": {"biological_target": "ABCB1 (P-GP) (Homo sapiens, UniProt P08183)", "sequence (P08183 whole entry)": "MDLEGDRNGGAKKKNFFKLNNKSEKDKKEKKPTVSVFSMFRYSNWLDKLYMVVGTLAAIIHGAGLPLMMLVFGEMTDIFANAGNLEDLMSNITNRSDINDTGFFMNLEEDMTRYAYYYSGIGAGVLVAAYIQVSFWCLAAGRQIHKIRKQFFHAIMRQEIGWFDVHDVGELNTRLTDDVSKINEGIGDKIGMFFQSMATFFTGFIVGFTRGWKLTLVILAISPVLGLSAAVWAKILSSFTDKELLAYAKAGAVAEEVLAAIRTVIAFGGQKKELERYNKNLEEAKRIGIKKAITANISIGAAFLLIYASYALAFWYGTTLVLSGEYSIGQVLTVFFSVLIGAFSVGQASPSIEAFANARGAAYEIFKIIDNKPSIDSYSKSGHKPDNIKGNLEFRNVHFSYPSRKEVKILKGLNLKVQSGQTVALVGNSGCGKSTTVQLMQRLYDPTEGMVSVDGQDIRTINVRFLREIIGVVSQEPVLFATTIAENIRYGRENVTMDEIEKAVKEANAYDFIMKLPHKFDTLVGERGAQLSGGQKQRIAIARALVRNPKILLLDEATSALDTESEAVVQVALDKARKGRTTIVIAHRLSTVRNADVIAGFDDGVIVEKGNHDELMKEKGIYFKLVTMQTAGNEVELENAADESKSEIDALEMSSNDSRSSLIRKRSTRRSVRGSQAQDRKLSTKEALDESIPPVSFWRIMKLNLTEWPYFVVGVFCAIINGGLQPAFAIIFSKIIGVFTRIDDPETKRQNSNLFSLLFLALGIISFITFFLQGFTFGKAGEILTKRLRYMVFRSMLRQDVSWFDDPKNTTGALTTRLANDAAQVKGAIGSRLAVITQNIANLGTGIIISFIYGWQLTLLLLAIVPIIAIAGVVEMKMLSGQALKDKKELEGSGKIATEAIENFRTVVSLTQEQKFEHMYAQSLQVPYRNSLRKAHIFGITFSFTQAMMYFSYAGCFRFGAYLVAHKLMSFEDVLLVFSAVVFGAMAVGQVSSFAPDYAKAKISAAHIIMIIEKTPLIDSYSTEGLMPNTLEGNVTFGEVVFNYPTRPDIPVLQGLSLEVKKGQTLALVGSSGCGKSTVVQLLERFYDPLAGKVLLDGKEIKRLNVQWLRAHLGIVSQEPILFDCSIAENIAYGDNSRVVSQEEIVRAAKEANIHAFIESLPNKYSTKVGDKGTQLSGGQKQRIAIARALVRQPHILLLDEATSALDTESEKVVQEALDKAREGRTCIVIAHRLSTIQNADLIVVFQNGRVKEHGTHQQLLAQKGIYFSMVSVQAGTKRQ", "details": "cited from earlier work"}, "CYP3A4": {"biological_target": "CYP3A4 (Homo sapiens, UniProt P08684)", "sequence (P08684 whole entry)": "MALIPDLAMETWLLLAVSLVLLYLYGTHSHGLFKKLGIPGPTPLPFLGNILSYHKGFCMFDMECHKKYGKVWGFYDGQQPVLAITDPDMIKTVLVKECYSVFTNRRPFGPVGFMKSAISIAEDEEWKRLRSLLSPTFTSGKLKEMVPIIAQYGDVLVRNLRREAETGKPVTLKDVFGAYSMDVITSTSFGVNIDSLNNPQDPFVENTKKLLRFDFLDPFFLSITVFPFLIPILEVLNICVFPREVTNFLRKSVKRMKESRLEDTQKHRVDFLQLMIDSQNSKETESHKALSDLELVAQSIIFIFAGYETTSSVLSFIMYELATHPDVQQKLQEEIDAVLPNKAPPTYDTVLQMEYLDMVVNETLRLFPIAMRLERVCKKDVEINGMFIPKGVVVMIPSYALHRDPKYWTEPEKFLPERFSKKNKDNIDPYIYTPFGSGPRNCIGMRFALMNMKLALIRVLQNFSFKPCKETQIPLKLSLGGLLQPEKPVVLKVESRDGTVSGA", "details": "cited from earlier work"}, "ABCG2 (BCRP)": {"biological_target": "T1, ABCG2 (BCRP) (Homo sapiens, UniProt Q9UNQ0)", "T1 sequence (Q9UNQ0 1-655)": "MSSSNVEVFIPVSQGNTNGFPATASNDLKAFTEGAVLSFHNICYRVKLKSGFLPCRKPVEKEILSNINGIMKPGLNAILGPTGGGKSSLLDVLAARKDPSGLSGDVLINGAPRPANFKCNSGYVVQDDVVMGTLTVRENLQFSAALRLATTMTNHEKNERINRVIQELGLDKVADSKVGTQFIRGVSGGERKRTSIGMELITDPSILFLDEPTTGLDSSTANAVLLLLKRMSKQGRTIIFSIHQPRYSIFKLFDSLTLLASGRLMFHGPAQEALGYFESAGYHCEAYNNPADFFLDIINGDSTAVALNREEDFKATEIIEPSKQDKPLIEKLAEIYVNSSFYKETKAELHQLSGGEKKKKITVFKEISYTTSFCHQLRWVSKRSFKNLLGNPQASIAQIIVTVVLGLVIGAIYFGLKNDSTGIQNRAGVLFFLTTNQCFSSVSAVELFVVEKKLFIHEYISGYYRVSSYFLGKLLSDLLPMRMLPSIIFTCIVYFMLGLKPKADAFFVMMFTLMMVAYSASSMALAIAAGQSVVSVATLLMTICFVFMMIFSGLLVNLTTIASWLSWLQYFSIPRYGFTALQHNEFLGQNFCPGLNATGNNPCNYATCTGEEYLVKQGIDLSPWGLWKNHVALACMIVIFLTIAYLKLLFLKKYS", "details": "cited from earlier work"}, "[1]": {"tested_on": "HER2+ MBC patients with disease progression following trastuzumab", "details": "Trial II", "procedure": "Fifty five single nucleotide polymorphisms (SNPs) with functional consequence in 24 candidate genes were evaluated. The assay platform used to genotype these SNPs was the Illumina Human 1M-Duo BeadChip.\nStatistical analysis of genetic associations were evaluated using an additive test. For any significant marker identified from the additive test, specific contrasts of interest between different genotypes will be explored to determine risk genotype(s). Cox proportional hazards model with Firth method. Any covariate significant at p≦0.05 in the multivariate Cox model will be included.\nTesting for associations of SNPs with progression free survival (PFS) and overall survival (OS) during lapatinib treatment was performed using Cox proportional hazards methods, with covariate adjustment.\nAssociations were evaluated using an additive genetic test, using a multivariate Cox proportional hazards model adjusting for significant clinical covariates and race/ethnicity difference. […] The primary endpoints was Progression Free Survival (PFS), where the secondary endpoint was Overall Survival (OS). […] Variants were assigned to tiers for analysis, with different association significance thresholds and these were specified prior to analysis to adjust for number of SNP tests, but not for number of endpoints and groups, as follows: • Candidate genes:"}, "[2]": {"tested_on": "HER2+ MBC patients with recurrent brain metastases", "test": "Clinical Trial I: pharmacogenetic association of germline SNPs with PFS/OS during lapatinib monotherapy", "format": "in vivo, human", "source_text": "Candidate genes for this experiment are listed below.\nCox proportional hazards model with Firth method.\n(GWAS, 1M Genome-Wide SNPs (Illumina human 1M duo)). […] Examined genes were divided into three tiers as follows: […]"}, "HER2+ MBC patients": {"tested_on": "HER2+ MBC patients", "test": "Meta-analysis and GWAS across Trial I and Trial II study-treatment arms", "format": "in vivo, human", "details": "across the trials or study arms", "source_text": "(GWAS, 1M Genome-Wide SNPs (Illumina human 1M duo)). […] Examined genes were divided into three tiers as follows:\n• GWAS SNPs: Bonferroni threshold for significance p=0.05/1M=5×10-8"}}}
{"smiles": "CS(=O)(=O)CCNCc1ccc(-c2ccc3ncnc(Nc4ccc(OCc5cccc(F)c5)c(Cl)c4)c3c2)o1", "note": "[lapatinib, N-(3-chloro-4-{[(3-fluorophenyl)methyl]oxy}phenyl)-6-[5-({[2-(methylsulfonyl)ethyl]amino}methyl)-2-furanyl]-4-quinazolinamine]", "values": [{"measurement": "substrate status", "setting": "ABCB1 (P-GP)", "value": "(P-GP) lapatinib is substrate"}, {"measurement": "inhibitor status", "setting": "CYP3A4", "value": "inhibitor"}, {"measurement": "substrate status", "setting": "CYP3A4", "value": "substrate"}, {"measurement": "substrate status", "setting": "ABCG2 (BCRP)", "value": "(BCRP) lapatinib is substrate"}, {"measurement": "association of VEGFA rs3025039 936C>T with OS", "setting": "[1]", "value": "not seen"}, {"measurement": "association of SNPs with progression-free survival (PFS)", "setting": "[1]; 55 SNPs in 24 candidate genes", "value": "No SNPs were statistically significantly associated"}, {"measurement": "allelic hazard ratio for OS, VEGFR2 rs1870377 18487A>T Q472H", "setting": "[1]; T allele carriers showing improved OS, range in brackets", "value": "0.47 (0.3-0.73)"}, {"measurement": "allelic hazard ratio for OS, carriage of either IGFR1 minor allele (rs2037448 or rs7181022) vs wild type", "setting": "[1]; carriers have poorer OS, range in brackets", "value": "5.0 (2.2-10.0)"}, {"measurement": "association of VEGFR2 rs1870377 18487A>T with OS", "setting": "[2]", "value": "not seen"}, {"measurement": "association of SNPs with progression-free survival (PFS)", "setting": "[2]; 55 SNPs in 24 candidate genes", "value": "No SNPs were statistically significantly associated"}, {"measurement": "allelic hazard ratio for overall survival (OS), VEGFA rs3025039 936C>T", "setting": "[2]; lapatinib monotherapy, improved OS for T allele carriers, range in brackets", "value": "0.21 (0.08-0.52)"}, {"measurement": "GWAS signals (p<5×10-8) with common markers (MAF>5%)", "setting": "HER2+ MBC patients", "value": "no strong signals"}]}
